# From ChEMBL document CHEMBL1201862, “PubChem BioAssay data set” (2004)
# Activity calls are given as the source filed them.
# What was measured:
# [1] = target: Melanocortin receptor 4 (Homo sapiens, UniProt P32245); type: functional, cell-based;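 note: Cell-based assay with luminescence read-out, confirmatory dose-response testing for agonist activity of biased ligands at MC4R; human U2OS cells with tagged receptor and beta-arrestin; potency of agonists that increase receptor coupling to beta-arrestin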
# Melanocortin receptor 4, sequence (P32245 whole entry): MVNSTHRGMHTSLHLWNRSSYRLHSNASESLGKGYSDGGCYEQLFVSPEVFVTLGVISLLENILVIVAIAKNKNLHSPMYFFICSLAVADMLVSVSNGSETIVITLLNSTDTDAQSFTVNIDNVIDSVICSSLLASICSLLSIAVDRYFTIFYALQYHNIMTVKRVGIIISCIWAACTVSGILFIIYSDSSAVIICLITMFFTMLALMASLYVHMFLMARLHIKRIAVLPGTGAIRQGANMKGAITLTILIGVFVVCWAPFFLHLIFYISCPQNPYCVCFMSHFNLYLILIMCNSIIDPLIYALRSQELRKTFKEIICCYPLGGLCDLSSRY
# [2] = target: T1, Ubiquitin-conjugating enzyme E2 N (Homo sapiens, UniProt P61088); type: functional;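 note: Dose-response confirmation in a TR-FRET assay detecting UBC13-driven polyubiquitin chain formation, inhibition measured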
# T1 sequence (P61088 whole entry): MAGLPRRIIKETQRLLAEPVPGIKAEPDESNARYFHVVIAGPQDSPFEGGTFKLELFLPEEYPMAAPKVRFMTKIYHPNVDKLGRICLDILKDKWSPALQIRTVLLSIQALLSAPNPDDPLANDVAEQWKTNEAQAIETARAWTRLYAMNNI
# [3] = Luminescence Cell-Based Dose Retest to Confirm Inhibitors of Cancer Stem Cells. [Related pubchem assays (depositor defined):AID2717, AID2721]; type: functional; conditions: Homo sapiens
# [4] = system: INS1; test: beta cell apoptosis inhibitors, cytokine rescue, dose response, luminescence, retest (AID 449756); type: functional, cell-based; conditions: Rattus norvegicus;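 note: cell death triggered by IL-1 beta plus TNF-alpha plus IFN-gamma mixture; protective hits raise ATP signal compared with cytokine alone wells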
# [5] = non-specific cell cytotoxicity, dose response, cytotoxicity control for PAX8 inhibitor project, plate reader, dry powder samples (AID 743021); type: functional, cell-based
# [6] = target: Multidrug resistance protein CDR2 (Candida albicans (strain SC5314 / ATCC MYA-2876) (Yeast), UniProt P78595); test: CaCDR2 efflux pump inhibitors in yeast, dose response, S. cerevisiae AD1-8u, singleplex, Cherry Pick2 set (AID 623994); type: functional; conditions: read-out: EC50_MICROM
# Multidrug resistance protein CDR2, sequence (P78595 whole entry): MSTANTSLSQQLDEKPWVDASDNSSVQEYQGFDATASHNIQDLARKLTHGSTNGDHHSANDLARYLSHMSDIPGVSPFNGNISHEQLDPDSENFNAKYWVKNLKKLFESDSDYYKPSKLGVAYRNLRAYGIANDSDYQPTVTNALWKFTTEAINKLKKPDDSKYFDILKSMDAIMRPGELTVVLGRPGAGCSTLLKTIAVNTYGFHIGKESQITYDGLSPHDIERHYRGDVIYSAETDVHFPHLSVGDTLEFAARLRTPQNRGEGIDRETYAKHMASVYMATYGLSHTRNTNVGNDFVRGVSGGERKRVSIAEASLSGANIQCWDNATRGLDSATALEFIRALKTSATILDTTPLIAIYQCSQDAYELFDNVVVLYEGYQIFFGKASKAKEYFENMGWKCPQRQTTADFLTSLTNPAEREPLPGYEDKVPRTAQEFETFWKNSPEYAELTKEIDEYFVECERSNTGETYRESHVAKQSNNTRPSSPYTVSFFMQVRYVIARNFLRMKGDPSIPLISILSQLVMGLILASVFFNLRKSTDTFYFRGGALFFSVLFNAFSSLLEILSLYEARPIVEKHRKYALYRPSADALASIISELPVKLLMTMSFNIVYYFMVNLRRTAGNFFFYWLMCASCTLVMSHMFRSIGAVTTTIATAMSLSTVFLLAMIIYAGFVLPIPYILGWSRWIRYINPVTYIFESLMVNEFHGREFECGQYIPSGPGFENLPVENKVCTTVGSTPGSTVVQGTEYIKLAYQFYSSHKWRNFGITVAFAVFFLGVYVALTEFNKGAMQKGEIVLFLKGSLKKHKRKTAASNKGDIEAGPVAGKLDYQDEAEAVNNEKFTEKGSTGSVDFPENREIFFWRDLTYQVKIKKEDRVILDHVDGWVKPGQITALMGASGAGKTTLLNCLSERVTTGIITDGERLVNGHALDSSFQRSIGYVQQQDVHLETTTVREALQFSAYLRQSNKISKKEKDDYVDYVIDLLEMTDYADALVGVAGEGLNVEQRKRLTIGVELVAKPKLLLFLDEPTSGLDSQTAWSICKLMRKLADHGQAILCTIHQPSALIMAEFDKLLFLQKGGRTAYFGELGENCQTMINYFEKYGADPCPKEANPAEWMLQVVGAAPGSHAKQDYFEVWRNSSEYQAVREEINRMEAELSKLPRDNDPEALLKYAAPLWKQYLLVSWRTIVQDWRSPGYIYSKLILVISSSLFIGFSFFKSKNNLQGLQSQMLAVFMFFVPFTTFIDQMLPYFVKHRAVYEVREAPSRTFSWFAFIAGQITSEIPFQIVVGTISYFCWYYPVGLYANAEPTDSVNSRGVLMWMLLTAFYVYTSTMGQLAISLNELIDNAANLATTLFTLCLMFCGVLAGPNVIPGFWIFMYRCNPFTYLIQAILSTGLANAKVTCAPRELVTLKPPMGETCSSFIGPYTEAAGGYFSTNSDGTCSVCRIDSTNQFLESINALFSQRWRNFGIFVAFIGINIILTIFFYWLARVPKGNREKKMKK
# [7] = target: Paired box protein Pax-8 (Homo sapiens, UniProt Q06710); test: inhibitors of PAX8-driven TPO luciferase reporter, dose response, RMG-I cells, cherry-pick (AID 687027); type: functional, cell-based;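 note: luciferase reporter driven by Pax8 target thyroperoxidase promoter measured by SteadyGlo luminescence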
# Paired box protein Pax-8, sequence (Q06710 whole entry): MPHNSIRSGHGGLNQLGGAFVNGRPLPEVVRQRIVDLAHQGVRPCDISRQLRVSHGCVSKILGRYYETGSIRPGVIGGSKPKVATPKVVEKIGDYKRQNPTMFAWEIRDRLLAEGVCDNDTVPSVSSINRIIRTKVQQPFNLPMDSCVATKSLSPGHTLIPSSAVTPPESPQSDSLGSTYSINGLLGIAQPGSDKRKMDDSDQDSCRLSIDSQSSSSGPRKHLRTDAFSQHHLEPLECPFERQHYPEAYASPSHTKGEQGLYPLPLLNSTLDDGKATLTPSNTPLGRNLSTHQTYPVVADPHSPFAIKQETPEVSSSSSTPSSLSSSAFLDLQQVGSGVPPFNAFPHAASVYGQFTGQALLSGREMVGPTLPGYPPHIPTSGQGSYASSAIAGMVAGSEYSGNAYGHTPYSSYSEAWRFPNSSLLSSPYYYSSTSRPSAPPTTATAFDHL
# [8] = target: Integrin alpha-4 (Homo sapiens, UniProt P13612); test: VLA-4 integrin allosteric ligands, SAR follow-up, cell-based, LIBS antibody binding, flow cytometry (AID 488791); type: functional
# Integrin alpha-4, sequence (P13612 whole entry): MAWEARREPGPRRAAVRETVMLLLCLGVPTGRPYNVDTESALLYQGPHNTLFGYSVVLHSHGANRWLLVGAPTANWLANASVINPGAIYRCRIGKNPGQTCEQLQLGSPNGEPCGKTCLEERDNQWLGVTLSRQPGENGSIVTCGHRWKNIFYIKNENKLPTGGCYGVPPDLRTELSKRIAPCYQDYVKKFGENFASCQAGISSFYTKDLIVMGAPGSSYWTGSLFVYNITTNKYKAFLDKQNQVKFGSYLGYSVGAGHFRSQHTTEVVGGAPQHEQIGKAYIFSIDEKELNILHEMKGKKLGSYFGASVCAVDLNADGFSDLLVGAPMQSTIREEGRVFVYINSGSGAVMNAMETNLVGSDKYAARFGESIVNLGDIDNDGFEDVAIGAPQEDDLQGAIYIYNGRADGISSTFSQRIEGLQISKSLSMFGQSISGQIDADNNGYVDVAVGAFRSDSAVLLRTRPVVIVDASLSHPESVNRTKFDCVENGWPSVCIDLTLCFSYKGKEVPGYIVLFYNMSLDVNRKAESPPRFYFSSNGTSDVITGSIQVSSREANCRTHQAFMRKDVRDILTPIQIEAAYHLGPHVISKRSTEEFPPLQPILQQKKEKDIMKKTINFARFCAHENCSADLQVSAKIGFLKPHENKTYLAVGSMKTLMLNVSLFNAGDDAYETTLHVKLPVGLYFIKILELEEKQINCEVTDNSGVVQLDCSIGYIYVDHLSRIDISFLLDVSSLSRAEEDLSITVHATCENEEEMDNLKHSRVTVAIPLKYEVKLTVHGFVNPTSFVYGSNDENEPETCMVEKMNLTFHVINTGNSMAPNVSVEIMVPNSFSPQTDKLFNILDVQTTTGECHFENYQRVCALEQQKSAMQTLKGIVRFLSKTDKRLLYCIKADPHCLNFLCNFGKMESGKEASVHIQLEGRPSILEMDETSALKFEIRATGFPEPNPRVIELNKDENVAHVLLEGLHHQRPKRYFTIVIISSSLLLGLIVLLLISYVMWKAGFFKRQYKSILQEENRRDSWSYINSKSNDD
# [9] = SV40 cytopathic effect inhibition and cytotoxicity, confirmation, BSC cells, set 3 (AID 485276); type: functional, cell-based
# [10] = target: T2, Kappa-type opioid receptor (Homo sapiens, UniProt P41145); type: functional
# T2 sequence (P41145 whole entry): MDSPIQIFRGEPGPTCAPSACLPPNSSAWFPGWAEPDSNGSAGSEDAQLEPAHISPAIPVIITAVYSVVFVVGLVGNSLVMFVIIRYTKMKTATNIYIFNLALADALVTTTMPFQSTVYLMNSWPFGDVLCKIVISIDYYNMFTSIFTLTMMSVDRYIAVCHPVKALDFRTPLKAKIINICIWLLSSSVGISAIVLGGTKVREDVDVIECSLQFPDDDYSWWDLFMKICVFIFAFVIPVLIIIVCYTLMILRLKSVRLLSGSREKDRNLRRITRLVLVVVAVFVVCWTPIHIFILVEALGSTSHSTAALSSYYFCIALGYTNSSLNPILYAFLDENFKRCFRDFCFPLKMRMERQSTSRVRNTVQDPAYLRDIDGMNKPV
# [11] = target: T3, Rac GTPase-activating protein 1 (Homo sapiens, UniProt Q9H0H5); test: MgcRacGAP GTPase-activating activity inhibitors, confirmation, biochemical, ADP Hunter fluorescence, primary and confirmatory (AID 624330); type: functional
# T3 sequence (Q9H0H5 whole entry): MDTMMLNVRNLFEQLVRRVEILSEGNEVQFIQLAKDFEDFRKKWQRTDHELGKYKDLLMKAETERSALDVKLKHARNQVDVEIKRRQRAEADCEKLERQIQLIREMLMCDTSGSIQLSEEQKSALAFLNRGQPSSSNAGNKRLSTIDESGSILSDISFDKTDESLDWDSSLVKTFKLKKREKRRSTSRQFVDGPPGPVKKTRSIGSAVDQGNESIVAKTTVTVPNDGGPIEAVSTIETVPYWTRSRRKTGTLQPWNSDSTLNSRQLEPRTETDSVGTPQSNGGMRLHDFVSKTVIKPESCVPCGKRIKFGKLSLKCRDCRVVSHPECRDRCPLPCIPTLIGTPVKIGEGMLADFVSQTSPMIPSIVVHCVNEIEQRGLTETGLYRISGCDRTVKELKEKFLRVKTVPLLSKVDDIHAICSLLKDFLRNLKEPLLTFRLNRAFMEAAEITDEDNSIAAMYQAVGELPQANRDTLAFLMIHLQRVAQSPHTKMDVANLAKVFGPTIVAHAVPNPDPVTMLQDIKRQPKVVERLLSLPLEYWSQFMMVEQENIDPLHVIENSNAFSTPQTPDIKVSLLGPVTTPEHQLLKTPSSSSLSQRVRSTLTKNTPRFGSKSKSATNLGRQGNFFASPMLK
# [12] = target: 72 kDa type IV collagenase (Homo sapiens, UniProt P08253); test: Dose Response validation of uHTS RPN11 inhibitor hits using a MMP-2 Fluorescence assay.; type: functional
# 72 kDa type IV collagenase, sequence (P08253 whole entry): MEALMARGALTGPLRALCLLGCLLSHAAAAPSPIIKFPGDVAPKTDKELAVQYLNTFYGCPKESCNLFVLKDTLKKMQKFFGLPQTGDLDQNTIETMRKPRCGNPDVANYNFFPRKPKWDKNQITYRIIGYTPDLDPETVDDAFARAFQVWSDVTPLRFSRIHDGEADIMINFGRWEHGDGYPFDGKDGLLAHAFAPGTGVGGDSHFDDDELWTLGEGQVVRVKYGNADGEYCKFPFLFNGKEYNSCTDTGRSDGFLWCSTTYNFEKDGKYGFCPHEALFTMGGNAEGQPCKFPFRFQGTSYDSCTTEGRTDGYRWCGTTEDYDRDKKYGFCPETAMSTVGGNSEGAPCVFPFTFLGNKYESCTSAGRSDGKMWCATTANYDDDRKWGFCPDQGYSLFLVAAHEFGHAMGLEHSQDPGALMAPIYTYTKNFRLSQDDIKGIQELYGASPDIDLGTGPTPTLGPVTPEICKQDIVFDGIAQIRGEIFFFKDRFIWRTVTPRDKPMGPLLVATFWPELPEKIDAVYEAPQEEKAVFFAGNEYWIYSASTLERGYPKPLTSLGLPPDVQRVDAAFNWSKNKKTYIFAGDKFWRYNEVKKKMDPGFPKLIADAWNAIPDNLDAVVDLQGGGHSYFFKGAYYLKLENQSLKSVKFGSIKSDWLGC
# [13] = Counterscreen for IDE inhibitors: Luminescence-based cell-based high throughput dose response assay to identify compounds that are cytotoxic to HEK cells. [Related pubchem assays: 434962 (Primary screen (IDE inhibitors in singlicate)), 449730 (Counterscreen (Cytotoxicity in triplicate)), 435028 (Confirmation (IDE inhibitors in triplicate)) …; type: functional; conditions: HEK293
# [14] = target: T2, Kappa-type opioid receptor; type: functional; remark: listed apart in the source
# [15] = target: 26S proteasome non-ATPase regulatory subunit 14 (Homo sapiens, UniProt O00487); test: inhibition of proteasome subunit RPN11 – biochemical, fluorescence polarization, uHTS hits, confirmation (AID 602368); type: functional
# [16] = target: T4, Insulin-degrading enzyme (Homo sapiens, UniProt P14735); test: Dose Response: Fluorescence polarization-based cell-based high throughput dose response assay for inhibitors of insulin-degrading enzyme (IDE). [Related pubchem assays: 434962 (Primary screen (IDE inhibitors in singlicate)), 449730 (Counterscreen (Cytotoxicity in triplicate)), 435028 (Confirmation (IDE inhibitors in triplicate)), 434984 (Summary …; type: functional
# T4 sequence (P14735 whole entry): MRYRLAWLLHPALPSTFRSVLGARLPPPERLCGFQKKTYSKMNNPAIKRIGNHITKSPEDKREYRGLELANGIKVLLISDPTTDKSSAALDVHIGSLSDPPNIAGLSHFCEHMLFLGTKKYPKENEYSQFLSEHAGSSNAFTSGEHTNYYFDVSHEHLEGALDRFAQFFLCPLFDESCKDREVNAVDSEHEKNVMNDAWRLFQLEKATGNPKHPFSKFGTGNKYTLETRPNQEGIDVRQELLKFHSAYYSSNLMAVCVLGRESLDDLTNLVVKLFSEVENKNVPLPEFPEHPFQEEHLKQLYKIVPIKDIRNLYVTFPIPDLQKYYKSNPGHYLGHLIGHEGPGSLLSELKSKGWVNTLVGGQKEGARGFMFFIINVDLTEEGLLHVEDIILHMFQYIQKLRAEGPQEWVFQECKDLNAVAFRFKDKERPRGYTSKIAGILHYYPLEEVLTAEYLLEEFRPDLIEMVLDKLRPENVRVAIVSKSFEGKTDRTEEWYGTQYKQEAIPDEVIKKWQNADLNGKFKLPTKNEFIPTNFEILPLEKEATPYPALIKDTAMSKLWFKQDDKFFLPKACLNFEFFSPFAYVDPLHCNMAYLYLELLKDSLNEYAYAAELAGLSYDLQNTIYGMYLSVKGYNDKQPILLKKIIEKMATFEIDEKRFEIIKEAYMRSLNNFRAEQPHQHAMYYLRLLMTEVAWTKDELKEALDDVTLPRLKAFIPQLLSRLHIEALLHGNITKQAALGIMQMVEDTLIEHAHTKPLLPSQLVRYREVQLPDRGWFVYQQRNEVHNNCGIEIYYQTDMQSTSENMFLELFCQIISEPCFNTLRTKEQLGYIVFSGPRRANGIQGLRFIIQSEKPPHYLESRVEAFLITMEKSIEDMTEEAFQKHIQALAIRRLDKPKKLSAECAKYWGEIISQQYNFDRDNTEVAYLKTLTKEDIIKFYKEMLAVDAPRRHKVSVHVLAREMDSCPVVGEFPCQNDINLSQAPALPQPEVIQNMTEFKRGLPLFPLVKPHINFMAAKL
# [17] = target: Beta-galactosidase (Escherichia coli, UniProt Q8VNN2); type: functional
# [18] = target: Prothrombin (Bos taurus, UniProt P00735); test: thrombin inhibition, dose response, biochemical, fluorescence polarization, uHTS hits (AID 602369); type: functional
# [19] = cytotoxicity toward DRD oncogenic fibroblasts, dose response, cell-based, non-viral oncogenic, luminescence (AID 1934); type: functional; conditions: Homo sapiens
# [20] = Luminescence Cell-Based Dose Response HTS to Identify Inhibitors of 5'UTR Stem-Loop Driven Prion Protein mRNA Translation in H4 Neuroglioblastoma Cells. [Related pubchem assays: 1827 (Project Summary), 1813 (Primary HTS)]; type: functional
# [21] = Luminescence Cell-Based Dose Response HTS to Identify Activators of Luciferase Translation or Activity in H4-C Neuroglioblastoma Cells. [Related pubchem assays: 1829 (Project Summary), 1814 (Primary HTS)]; type: functional
# [22] = Luminescence Cell-Based Dose Response HTS to Identify Inhibitors of Luciferase Translation or Activity in H4-C Neuroglioblastoma Cells. [Related pubchem assays: 1813 (Primary HTS), 1827 (Project Summary)]; type: functional
# [23] = system: BJ; test: cytotoxicity toward BJ-TERT fibroblasts, dose response, cell-based, RAS-independent, luminescence (AID 1933); type: functional; conditions: Homo sapiens
# [24] = Luminescence Cell-Based Dose Retest to Confirm Activators of 5'UTR Stem-Loop Driven Alpha-Synuclein mRNA Translation in H4 Neuroglioblastoma Cells. [Related pubchem assays (depositor defined):AID1813, AID1829]; type: functional
# [25] = inhibitors of SNCA 5'UTR-driven reporter translation, confirmation, H4 neuroglioma cells, luminescence (AID 1988); type: functional, cell-based
# [26] = system: BJ; test: cytotoxicity toward BJ-TERT-LT-ST fibroblasts, dose response, cell-based, RAS-independent, luminescence (AID 1935); type: functional; conditions: Homo sapiens;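 note: BJ fibroblasts immortalized with TERT plus LT and ST oncogenes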
# [27] = inhibitors of firefly luciferase expression or activity, dose response, H4 neuroglioma cells, luminescence (AID 1990); type: functional, cell-based
# [28] = Luminescence Cell-Based Dose Response HTS to Identify Activators of 5'UTR Stem-Loop Driven Prion Protein mRNA Translation in H4-C Neuroglioblastoma Cells. [Related pubchem assays: 1829 (Project Summary), 1814 (Primary HTS)]; type: functional
# [29] = cells; type: functional, cell-based
# [30] = Luminescence Cell-Based Dose Confirmation HTS to Identify Inhibitors of 5'UTR Stem-Loop Driven Alpha-Synuclein mRNA Translation in H4 Neuroglioblastoma Cells. [Related pubchem assays: 1827 (Project Summary), 1813 (Primary HTS)]; type: functional
# [31] = inhibitors of SNCA 5'UTR-driven translation, confirmation, luminescence, H4 neuroglioblastoma cells, dose confirmation (AID 2454); type: functional, cell-based;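 note: H4 neuroglioblastoma cells carrying an alpha-synuclein 5'UTR luciferase reporter; potency for inhibition of the luciferase signal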
# [32] = Luminescence Cell-Based Dose HTS Response to Identify Inhibitors of 5'UTR Stem-Loop Driven Prion Protein mRNA Translation in H4-C Neuroglioblastoma Cells. [Related pubchem assays (depositor defined):AID1814, AID1827]; type: functional
# [33] = luciferase reporter signal reduction – luminescence, H4-C neuroglioblastoma cells, dose response (AID 2458); type: functional, cell-based;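 note: H4 neuroglioblastoma cells stably carrying a luciferase reporter gene fusion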
# [34] = system: BJ; test: cells; type: functional, cell-based; conditions: Homo sapiens
# [35] = target: Eukaryotic translation initiation factor 4H (Homo sapiens, UniProt Q15056); test: eIF4H inhibition in translation initiation, SAR follow-up (AID 435011); type: functional
# [36] = target: Polyadenylate-binding protein 1 (Homo sapiens, UniProt P11940); test: PABP inhibition in translation initiation, SAR follow-up (AID 435018); type: functional
# Polyadenylate-binding protein 1, sequence (P11940 whole entry): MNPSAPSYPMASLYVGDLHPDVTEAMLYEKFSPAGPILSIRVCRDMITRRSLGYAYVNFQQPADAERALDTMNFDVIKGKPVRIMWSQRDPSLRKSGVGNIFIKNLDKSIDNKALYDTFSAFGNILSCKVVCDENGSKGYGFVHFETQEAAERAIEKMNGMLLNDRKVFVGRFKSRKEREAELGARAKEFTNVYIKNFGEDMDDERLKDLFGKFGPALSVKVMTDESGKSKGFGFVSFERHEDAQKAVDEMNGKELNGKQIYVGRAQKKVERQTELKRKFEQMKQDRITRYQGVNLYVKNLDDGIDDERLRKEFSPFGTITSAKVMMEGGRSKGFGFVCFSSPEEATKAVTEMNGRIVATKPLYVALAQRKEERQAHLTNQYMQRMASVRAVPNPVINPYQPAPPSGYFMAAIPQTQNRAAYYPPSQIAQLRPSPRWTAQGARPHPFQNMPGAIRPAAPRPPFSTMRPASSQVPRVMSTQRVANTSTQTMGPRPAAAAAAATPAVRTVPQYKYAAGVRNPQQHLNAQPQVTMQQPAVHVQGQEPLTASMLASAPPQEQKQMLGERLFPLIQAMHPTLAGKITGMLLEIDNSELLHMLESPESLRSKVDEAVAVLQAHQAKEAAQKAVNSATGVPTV
smiles,measurement,setting,value
COc1ccc(-c2sc3ccccc3c2-c2ccc(OCCN(C)C)cc2)cc1,EC50,[1],> 89.2 µM (inactive)
same,IC50,[2],> 20 µM (inactive)
same,AC50,[3],3.45 µM (active)
same,AC50,[4],8.01 µM (active)
same,AC50,[5],1.69 µM (active)
same,EC50,[6],57.1 µM (active)
same,AC50,[7],13 µM (active)
same,EC50,[8],> 57 µM (inactive)
CC(C)(c1ccc(O)cc1)c1ccc(O)cc1 [BISPHENOL A],IC50,[9],9.3 µM (active)
COc1cc(/C=C2/SC(=S)N(c3c(C)n(C)n(-c4ccccc4)c3=O)C2=O)ccc1O,IC50,[10],12.7 µM (active)
same,IC50,[11],43.7 µM (active)
same,IC50,[12],62.4 µM (active)
same,IC50,[13],> 55.7 µM (not active)
same,IC50,[14],> 32 µM
same,IC50,[15],24.4 µM (active)
same,IC50,[16],7.99 µM (active)
same,EC50,[17],13 µM (active)
same,IC50,[18],68.1 µM (active)
Cc1ccc(-c2cc(C(=O)N/N=C/c3c(C)nn(-c4ccccc4)c3C)[nH]n2)s1,EC50,[19],20 µM (inconclusive)
same,EC50,[20],11.6 µM (active)
same,EC50,[21],1.16 µM (inconclusive)
same,EC50,[22],0.806 µM (active)
same,EC50,[23],0.413 µM (active)
same,EC50,[24],2.69 µM (inconclusive)
same,EC50,[25],< 0.1 µM (active)
same,EC50,[26],0.396 µM (inconclusive)
same,EC50,[27],6.26 µM (inconclusive)
same,EC50,[28],0.509 µM (inconclusive)
same,EC50,[29],4.24 µM (active)
same,EC50,[30],1.38 µM (active)
same,EC50,[31],6.08 µM (active)
same,EC50,[32],1.23 µM (active)
same,EC50,[33],1.71 µM (active)
same,EC50,[34],46.3 µM (inconclusive)
COc1cc(Cl)c(C)cc1NC(=O)COC(=O)c1ccc(NC(N)=O)cc1,IC50,[35],> 100 µM (inactive)
same,IC50,[36],> 100 µM (inactive)
